Like-named read-outs stand apart in the source and are kept apart here.
Tests used:
Krafft temperature (TK) = format: physicochemical
Experimental: CHNS elemental analysis was carried out by a Vario EL cube (Elementar, Germany) calibrated on acetanilide. Electrospray ionization mass spectroscopy (ESI-MS) (micrOTOF-Q instrument; Bruker Daltonics, Germany) allowed for the MS spectra to be obtained. The ESI-MS instrument was operated in the positive ion mode and calibrated with the Tunemix^TM mixture (Bruker Daltonics, Germany). The mass accuracy was better than 5 ppm. The obtained mass spectra were analyzed using DataAnalysis 3.4 software (Bruker Daltonics, Germany). ^1H NMR spectra were recorded on a Bruker AMX-500 spectrometer, using CDCl3 as a solvent. ^1H chemical shifts (in ppm) were calibrated to TMS as an internal reference. Melting points were determined using a Boetius melting point apparatus, while Krafft temperatures were determined according to the directions given in [47]. CMC is the minimum concentration above which micelles are formed in aqueous liquid. To obtain the CMC values, we used McGowan’s model. […] Molecular characteristic volumes (Vx) are found by the addition of the atomic characteristic volumes and the subtraction for the same factory (6.56 × 10^−6 m^3 mol^−1) for every covalent bond.

C. glabrata 2853 = assay: Interaction of AABs (3 µM) with antifungal agents, modified checkerboard; format: cell-based, Candida glabrata
[1] = test system: C. glabrata clinical isolate C8 (C18); set-up: method as in PMID 37508306; settings: ref [12]; cited from earlier work
[2] = test system: C. glabrata clinical isolate C27; set-up: method as in PMID 37508306; settings: ref [12]; cited from earlier work
C. glabrata DSM 1226 = test system: C. glabrata DSM 1226; set-up: method as in PMID 37508306; settings: ref [12]; cited from earlier work
C. glabrata cells = test system: C. glabrata cells; set-up: method as in PMID 37508306; settings: ref [12], cited from earlier work
C. glabrata ATCC 90030 = assay: Interaction of AABs (3 µM) with antifungal agents, modified checkerboard; format: cell-based, Candida glabrata
C. glabrata 2586 = assay: as above; format: cell-based, Candida glabrata
ERG11 and ALS3 = test system: ERG11 and ALS3; set-up: method as in PMID 37508306; settings: qRT-PCR; ref [12]; cited from earlier work
[3] = C9 at constant 3 µM, dilutions in µg/mL
[4] = C11 at constant 3 µM, dilutions in µg/mL
[5] = C13 at constant 3 µM, dilutions in µg/mL
[6] = C15 at constant 3 µM, dilutions in µg/mL

CCCCCCCCCC(=O)N(C)CCC[N+](C)(C)CC(=O)[O-] [C9]
TK (Krafft temperature) (Krafft temperature (TK)): <0 °C

β-aescin
Multiplicity factor (MF) with C9 (C. glabrata 2853; C9 3 µM): 1
MIC90 of antimycotic combined with C9 (C. glabrata 2853; [3]): 128
Multiplicity factor (MF) with C11 (C. glabrata 2853; C11 3 µM): 1
MIC90 of antimycotic combined with C11 (C. glabrata 2853; [4]): 128
Multiplicity factor (MF) with C13 (C. glabrata 2853; C13 3 µM): 1
MIC90 of antimycotic combined with C13 (C. glabrata 2853; [5]): 128
Multiplicity factor (MF) with C15 (C. glabrata 2853; C15 3 µM): 1
MIC90 of antimycotic combined with C15 (C. glabrata 2853; [6]): 128
MFC [1]: 100 µg/mL
MIC [1]: 40 µg/mL
MFC [2]: 100 µg/mL
MIC [2]: 50 µg/mL
MFC (C. glabrata DSM 1226): 160 µg/mL
MIC (C. glabrata DSM 1226): 80 µg/mL
Increase versus control (FACS, membrane integrity) (C. glabrata cells; 1 × MIC): about 7.4%
Increase versus control (FACS, membrane integrity) (C. glabrata cells; 2 × MIC): ~22%
Multiplicity factor (MF) with C9 (C. glabrata ATCC 90030; C9 3 µM, |MF| = MIC90 alone/MIC90 with AAB): 1
MIC90 of antimycotic combined with C9 (C. glabrata ATCC 90030; [3]): 128
Multiplicity factor (MF) with C11 (C. glabrata ATCC 90030; C11 3 µM): 1
MIC90 of antimycotic combined with C11 (C. glabrata ATCC 90030; [4]): 128
Multiplicity factor (MF) with C13 (C. glabrata ATCC 90030; C13 3 µM): 1
MIC90 of antimycotic combined with C13 (C. glabrata ATCC 90030; [5]): 128
Multiplicity factor (MF) with C15 (C. glabrata ATCC 90030; C15 3 µM): 1
MIC90 of antimycotic combined with C15 (C. glabrata ATCC 90030; [6]): 128
Multiplicity factor (MF) with C9 (C. glabrata 2586; C9 3 µM): 2
MIC90 of antimycotic combined with C9 (C. glabrata 2586; [3]): 128
Multiplicity factor (MF) with C11 (C. glabrata 2586; C11 3 µM): 2
MIC90 of antimycotic combined with C11 (C. glabrata 2586; [4]): 128
Multiplicity factor (MF) with C13 (C. glabrata 2586; C13 3 µM): 2
MIC90 of antimycotic combined with C13 (C. glabrata 2586; [5]): 128
Multiplicity factor (MF) with C15 (C. glabrata 2586; C15 3 µM): 2
MIC90 of antimycotic combined with C15 (C. glabrata 2586; [6]): 128
Expression of ERG11 and ALS3 (ERG11 and ALS3): downregulation
